{"source": "patent US20240058315A1", "about": "“Pyridine and Pyrazine derivative for the Treatment of CF, COPD, and Bronchiectasis” (NOVARTIS AG, priority 2019, published 2024)", "key": {"patients with CF": {"system": "patients with CF", "experiment": "Clinical study in cystic fibrosis patients: lung function (FEV1)", "type": "in vivo, human", "details": "two weeks of treatment, listed as Compound A"}, "CYP2B6": {"system": "CYP2B6", "experiment": "Induction of CYP2B6", "type": "in vitro ADME"}, "ΔF508-CFTR": {"molecular_target": "ΔF508-CFTR (Homo sapiens (Human), UniProt P13569, DEL508-508)", "sequence (P13569 other isoform, or with tags, fused parts or gaps del F508-F508)": "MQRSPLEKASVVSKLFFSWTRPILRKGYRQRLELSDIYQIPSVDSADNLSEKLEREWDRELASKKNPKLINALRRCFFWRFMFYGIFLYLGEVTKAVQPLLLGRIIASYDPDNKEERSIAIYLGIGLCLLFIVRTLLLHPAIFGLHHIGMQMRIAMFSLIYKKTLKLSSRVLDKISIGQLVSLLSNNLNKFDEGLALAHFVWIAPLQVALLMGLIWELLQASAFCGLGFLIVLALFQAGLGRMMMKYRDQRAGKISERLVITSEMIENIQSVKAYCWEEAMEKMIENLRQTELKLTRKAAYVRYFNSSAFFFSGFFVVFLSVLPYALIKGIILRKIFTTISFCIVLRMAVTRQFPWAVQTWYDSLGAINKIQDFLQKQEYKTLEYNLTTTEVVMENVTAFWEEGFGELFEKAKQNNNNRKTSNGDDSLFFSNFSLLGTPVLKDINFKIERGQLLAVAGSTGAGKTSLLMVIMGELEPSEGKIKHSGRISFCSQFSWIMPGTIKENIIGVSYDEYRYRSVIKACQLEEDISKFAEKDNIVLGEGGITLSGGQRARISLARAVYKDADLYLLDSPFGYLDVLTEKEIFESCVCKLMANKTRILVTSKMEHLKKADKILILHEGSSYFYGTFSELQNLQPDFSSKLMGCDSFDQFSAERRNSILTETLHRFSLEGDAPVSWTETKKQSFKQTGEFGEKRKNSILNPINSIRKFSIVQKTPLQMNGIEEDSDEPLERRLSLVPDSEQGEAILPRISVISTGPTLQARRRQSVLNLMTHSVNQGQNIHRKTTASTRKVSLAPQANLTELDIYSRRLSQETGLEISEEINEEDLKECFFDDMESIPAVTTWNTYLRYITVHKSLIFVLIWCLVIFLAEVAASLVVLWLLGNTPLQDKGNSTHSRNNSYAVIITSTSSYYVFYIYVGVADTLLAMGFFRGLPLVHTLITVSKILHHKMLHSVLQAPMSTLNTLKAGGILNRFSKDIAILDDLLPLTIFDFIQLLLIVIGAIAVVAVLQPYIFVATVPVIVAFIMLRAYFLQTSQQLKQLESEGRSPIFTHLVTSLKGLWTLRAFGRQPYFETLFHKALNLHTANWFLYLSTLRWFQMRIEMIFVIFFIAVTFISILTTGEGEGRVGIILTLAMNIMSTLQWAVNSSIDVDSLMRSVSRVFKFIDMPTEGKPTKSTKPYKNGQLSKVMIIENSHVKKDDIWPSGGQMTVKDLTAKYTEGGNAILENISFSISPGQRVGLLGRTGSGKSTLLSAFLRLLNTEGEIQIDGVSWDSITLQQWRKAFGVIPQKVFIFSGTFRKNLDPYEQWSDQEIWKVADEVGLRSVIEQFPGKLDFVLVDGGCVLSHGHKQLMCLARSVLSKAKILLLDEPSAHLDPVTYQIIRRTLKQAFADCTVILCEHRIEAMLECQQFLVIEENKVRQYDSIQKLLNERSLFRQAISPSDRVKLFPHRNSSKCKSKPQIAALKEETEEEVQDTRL", "experiment": "CFTR potentiator assays (membrane potential, IonWorks Quattro, Ussing chamber ion transport)", "type": "cell-based", "details": "CFTR EC50 in 'the data measurements described above'; which of the potentiator assays is not stated", "description": "CFTR activity can be quantified by measuring the transmembrane potential. The means for measuring the transmembrane potential in a biological system can employ a number of methods including electrophysiological and optical fluorescence-based membrane potential assays.\nThe optical membrane potential assay utilises a negatively charged potentiometric dye, such as the FLIPR membrane potential dye (FMP) (see Baxter D F, Kirk M, Garcia A F, Raimondi A, Holmqvist M H, Flint K K, Bojanic D, Distefano P S, Curtis R, Xie Y. ‘A novel membrane potential-sensitive fluorescent dye improves cell-based assays for ion channels.’ J Biomol Screen. 2002 February; 7(1):79-85) which when extracellular is bound to a quenching agent.\nUpon cellular depolarisation the negatively charged dye redistributes to the intracellular compartment, unbinding from the membrane impermeant quench agent, yielding an increase in fluorescence. This change in fluorescence is proportional to the change in transmembrane potential which can result from the activity of CFTR. The changes in fluorescence can be monitored in real time by an appropriately equipped fluorescence detector such as the FLIPR (fluorometric imaging plate reader) in 96 or 384-well microtitre plates.\nChinese hamster ovary (CHO) cells stably expressing the AF508-CFTR channel were used for membrane potential experiments. Cells were maintained at 37° C. in 5% v/v CO2 at 100% humidity in Modified Eagles medium (MEM) supplemented with 8% v/v foetal calf serum, 100 μg/ml methotrexate and 100 U/ml penicillin/streptomycin. Cells were grown in 225 cm^2 tissue culture flasks. For membrane potential assays cells were seeded into 96 well plates at 40,000 cells per well, allowed to adhere and then maintained at 26° C. for 48 h to facilitate channel insertion.\nThe membrane potential screening assay utilised a low chloride ion containing extracellular solution (˜5 mM) combined with a double addition protocol. The first addition was of buffer with or without test compound followed 5 minutes later by an addition of forskolin (1-20 μM)—this protocol favours maximum chloride efflux in response to ΔF508-CFTR activation. The ΔF508-CFTR mediated chloride ion efflux leads to a membrane depolarisation which is optically monitored by the FMP dye.\nLow chloride extracellular (mM): 120 Na-gluconate, 1.2 CaCl2), 3.3 KH2PO4, 0.8 K2HPO4, 1.2 MgCl2, 10.0 D-glucose, 20.0 HEPES, pH 7.4 with NaOH FMP dye: made up as per manufacturers' instructions in low chloride extracellular solution detailed above, at 10× final concentration, and stored as 1 mL aliquots at −20° C.\nCFTR activity can also be quantified electrophysiologically using the whole-cell configuration of the patch clamp technique (Hamill et al Pflugers Archive 1981). This assay directly measures the currents associated with chloride flow through CFTR channels whilst either maintaining or adjusting the transmembrane voltage. This assay can use either single glass micropipettes or parallel planar arrays to measure CFTR activity from native or recombinant cell systems. Currents measured using parallel planar arrays can be quantified using an appropriately equipped instrument such as the IonWorks Quattro (Molecular Devices) or the Qpatch (Sophion). The Quattro system can measure CFTR currents from either a single cell per recording well (HT configuration) or alternatively from a population of 64 cells per well (Population Patch Clamp PPC) (Finkel A, Wittel A, Yang N, Handran S, Hughes J, Costantin J. ‘Population patch clamp improves data consistency and success rates in the measurement of ionic currents.’ J Biomol Screen. 2006 August; 11(5):488-96).\nChinese hamster ovary (CHO) cells stably expressing the ΔF508-CFTR channel were used for IonWorks Quattro experiments. […]"}, "OATP1B1": {"molecular_target": "OATP1B1 (Homo sapiens (Human), UniProt Q9Y6L6)", "sequence (Q9Y6L6 whole entry)": "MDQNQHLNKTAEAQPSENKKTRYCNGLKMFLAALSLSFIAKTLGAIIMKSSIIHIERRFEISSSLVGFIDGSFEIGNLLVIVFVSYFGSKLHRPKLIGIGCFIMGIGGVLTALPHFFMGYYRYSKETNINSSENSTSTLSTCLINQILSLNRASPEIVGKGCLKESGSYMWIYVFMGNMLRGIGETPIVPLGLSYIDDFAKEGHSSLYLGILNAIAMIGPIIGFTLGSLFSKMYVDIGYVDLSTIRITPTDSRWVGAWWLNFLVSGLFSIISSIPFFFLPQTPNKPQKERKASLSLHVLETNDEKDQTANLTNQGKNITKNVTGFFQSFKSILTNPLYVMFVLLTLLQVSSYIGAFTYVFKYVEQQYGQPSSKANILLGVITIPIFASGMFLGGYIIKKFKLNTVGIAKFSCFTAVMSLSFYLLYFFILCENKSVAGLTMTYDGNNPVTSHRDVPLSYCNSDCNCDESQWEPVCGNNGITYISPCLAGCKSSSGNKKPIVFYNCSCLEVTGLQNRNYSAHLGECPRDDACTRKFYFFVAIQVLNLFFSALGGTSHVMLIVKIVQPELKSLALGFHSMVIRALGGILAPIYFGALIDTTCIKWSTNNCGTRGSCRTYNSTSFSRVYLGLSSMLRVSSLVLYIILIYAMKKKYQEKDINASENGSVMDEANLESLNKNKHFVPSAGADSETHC", "experiment": "in vitro inhibition of OATP1B1", "type": "in vitro ADME"}, "[1]": {"system": "Pseudomonas aeruginosa Biotype 2 - dry", "experiment": "Phase II study in COPD patients: sputum microbiology, Pseudomonas aeruginosa Biotype 2 - dry", "type": "in vivo", "method": "Patients were randomized and stratified by smoking status (former vs current smokers). The double-blind placebo-controlled treatment period was 28 days (Day 1 to Day 28) and included visits on Days 1, 14 and 28. Eligible patients were randomized in a 2:1 ratio to receive 300 mg b.i.d. of Compound A or matching placebo for 28 consecutive days. Of note, the first 4 patients enrolled randomized in this study received 450 mg b.i.d. of Compound A or placebo, prior to an amendment reducing the dose and thereafter the dose was reduced to 300 mg b.i.d. of Compound A. The single-blind placebo-controlled follow-up period was 28 days. The follow-up period included a visit on Day 29 for key primary and secondary objective efficacy assessments, weekly follow-up contact via telephone, and an End-of-Study (EOS) visit on Day 56.\nSpontaneous sputum was collected from patients and used to quantify colony forming units (CFUs) as a potential efficacy marker. The collected sputum samples were cultured for the following specific bacteria: Haemophilus parainfluenza, Haemophilus influenza, Pseudomonas aeruginosa, Moraxella, and Streptococcus pneumonia. In the event of bacterial growth for one or more of the above five pathogens, then the test result was reported, including the quantitative growth. In order to be included in the sputum analysis, a patient must have provided a sufficient sputum sample at baseline and at least one other visit (Day 14, Day 29 or EOS).\nA decrease in airway bacterial colonization as detected in the sputum is considered improvement. In Table 4, the frequency (n, %) of patients was reported by treatment with Compound A and type of bacteria. Within each treatment group, the percentage was calculated as number of patients who were colonized with bacteria divided with total number of patients who produced a sputum sample at that time point."}}, "note": "“Also recorded” adds a separate entry of the source.", "data": [{"smiles": "COc1nc(C(=O)NC[C@](C)(O)C(F)(F)F)c(N)cc1C(F)(F)F", "note": "(single isomer, unassigned) [Example 5]", "values": [{"measurement": "lung function (FEV1)", "setting": "patients with CF", "value": "significant improvement; also recorded: statistically important improvement"}, {"measurement": "effect on co-medications mainly metabolized by CYP2B6", "setting": "CYP2B6", "value": "induce"}, {"measurement": "EC50", "setting": "ΔF508-CFTR", "value": 50, "unit": "nM"}, {"measurement": "inhibition of OATP1B1", "setting": "OATP1B1", "value": "Weak in vitro inhibition"}, {"measurement": "patients colonized, n (%)", "setting": "[1]; Baseline", "value": "2 (4.4) n (%)"}, {"measurement": "patients colonized, n (%)", "setting": "[1]; D14", "value": "4 (9.3) n (%)"}, {"measurement": "patients colonized, n (%)", "setting": "[1]; D29", "value": "2 (4.8) n (%)"}, {"measurement": "patients colonized, n (%)", "setting": "[1]; EOS", "value": "1 (2.4) n (%)"}]}]}
